Measurements reported in publication PMC5681660, “Reduced hepatitis B and D viral entry using clinically applied drugs as novel inhibitors of the bile acid transporter NTCP” (Scientific Reports, 2017).
Counter-ions that a name gives are not always drawn.

Biological target: T1, human NTCP (Homo sapiens, UniProt Q14973)
T1 sequence (Q14973 1-349): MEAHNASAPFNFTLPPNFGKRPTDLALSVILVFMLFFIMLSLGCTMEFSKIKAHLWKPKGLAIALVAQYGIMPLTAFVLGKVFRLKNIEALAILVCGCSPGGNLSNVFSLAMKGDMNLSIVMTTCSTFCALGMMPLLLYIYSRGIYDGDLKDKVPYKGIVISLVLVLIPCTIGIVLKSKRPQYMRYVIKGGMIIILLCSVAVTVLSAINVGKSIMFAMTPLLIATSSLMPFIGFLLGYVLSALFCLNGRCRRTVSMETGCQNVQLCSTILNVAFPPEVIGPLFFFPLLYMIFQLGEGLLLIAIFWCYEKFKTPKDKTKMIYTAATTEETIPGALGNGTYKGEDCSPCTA
Experiment: Screening taurocholate uptake assay (96-well, [14C]taurocholate, 10 µM drug)
Conditions: for B-score functional assay: screening taurocholate uptake, 10 µM drug

[1] = ranking over the functional and the binding screening assay
[2] = combined ranking of functional and binding screening assays

Structure (SMILES) | Ranking score [1] | B-score functional assay | Ranking score [2] | B-score functional assay (B-score) | Ranking score (ranking score beside the functional and binding assay B-scores of the screen)
CC[C@@]1([C@H]2O[C@H]([C@H]3O[C@@](O)(CO)[C@H](C)C[C@@H]3C)C[C@H]2C)CC[C@H]([C@@]2(C)CC[C@]3(C[C@H](O)[C@@H](C)[C@@H]([C@H](C)[C@H](OC)[C@@H](C)C(=O)[O-])O3)O2)O1.[Na+] [Monensin sodium salt] | 257.93 | -1.407 |  |  | 
Oc1ccc(OCc2ccccc2)cc1 [Monobenzone] |  | -0.057 | 560.227 |  | 
CC(C)(O)c1ccccc1CC[C@@H](SCC1(CC(=O)O)CC1)c1cccc(/C=C/c2ccc3ccc(Cl)cc3n2)c1 [Montelukast] | 55.3173 | -3.762 |  |  | 
CCOC(=O)Nc1ccc2c(c1)N(C(=O)CCN1CCOCC1)c1ccccc1S2 [Moricizine hydrochloride] |  |  | 1215.96 | 2.078 | 
CO[C@@]1(NC(=O)C(C(=O)O)c2ccc(O)cc2)C(=O)N2C(C(=O)O)=C(CSc3nnnn3C)CO[C@@H]21 (some centres unmarked) [Moxalactam disodium salt] |  | -0.667 | 623.639 |  | 
CNc1ncnc2c1ncn2[C@@H]1O[C@H](CO)[C@@H](O)[C@H]1O [N6-methyladenosine] |  | 0.107 | 568.625 |  | 
CC(=O)N[C@@H](CC(C)C)C(=O)O [N-Acetyl-L-leucine] |  | -1.591 | 463.866 |  | 
NC(=O)c1ccc[n+]([C@@H]2O[C@H](COP(=O)([O-])OP(=O)(O)OC[C@H]3O[C@@H](n4cnc5c(N)ncnc54)[C@H](O)[C@@H]3O)[C@@H](O)[C@H]2O)c1 [Nadide] |  | 0.371 | 475.971 |  | 
CC1CCc2c(N3CCC(O)CC3)c(F)cc3c(=O)c(C(=O)O)cn1c23 (centres unmarked) [Nadifloxacin] |  |  | 1251.94 | 3.94 | 
CCOc1ccc2ccccc2c1C(=O)N[C@@H]1C(=O)N2[C@@H]1SC(C)(C)[C@@H]2C(=O)O [Nafcillin sodium salt monohydrate] | 223.052 | 0.036 |  |  | 
CCN(CC)CCOC(=O)C(Cc1cccc2ccccc12)CC1CCCO1 (centres unmarked) [Nafronyl oxalate] |  | -1.268 | 488.941 |  | 
CCn1cc(C(=O)[O-])c(=O)c2ccc(C)nc21.[Na+] [Nalidixic acid sodium salt] |  | -0.033 | 500.32 |  | 
C=C1CC[C@@]2(O)[C@H]3Cc4ccc(O)c5c4[C@@]2(CCN3CC2CC2)[C@H]1O5 [Nalmefene hydrochloride] |  | 0.055 | 642.564 |  | 
Cl.O.O.O=C1CC[C@@]2(O)[C@H]3Cc4ccc(O)c5c4[C@@]2(CCN3CC2CC2)[C@H]1O5 [Naltrexone hydrochloride dihydrate] |  |  |  |  | 809.543
c1ccc2c(CC3=NCCN3)cccc2c1 [Naphazoline hydrochloride] | 143.903 | -2.093 |  |  | 
CCc1nn(CCCN2CCN(c3cccc(Cl)c3)CC2)c(=O)n1CCOc1ccccc1 [Nefazodone HCl] | 227.321 | -1.389 |  |  | 
Cc1c(O)cccc1C(=O)N[C@@H](CSc1ccccc1)[C@H](O)CN1C[C@H]2CCCC[C@H]2C[C@H]1C(=O)NC(C)(C)C [Nelfinavir mesylate] | 28.9828 | -3.419 |  |  | 
Cc1ccnc2c1NC(=O)c1cccnc1N2C1CC1 [Nevirapine] |  | -1.052 | 548.284 |  | 
CO[C@]12C[C@@H](COC(=O)c3cncc(Br)c3)CN(C)[C@@H]1Cc1cn(C)c3cccc2c13 [Nicergoline] |  | -0.256 | 615.79 |  | 
O=C(Nc1ccc([N+](=O)[O-])cc1Cl)c1cc(Cl)ccc1O [Niclosamide] | 178.326 | -3.546 |  |  | 
O=C(NCCO[N+](=O)[O-])c1cccnc1 [Nicorandil] |  |  | 1149.4 | 0.976 | 
Cn1c(NCCN(CCO)CCCc2ccc([N+](=O)[O-])cc2)cc(=O)n(C)c1=O [Nifekalant] |  | 0.451 | 503.354 |  | 
Cc1c(NC(=O)c2cccnc2)c(=O)n(-c2ccccc2)n1C [Nifenazone] |  | 0.488 | 560.079 |  | 
COC(=O)C1=C(C)NC(C)=C(C(=O)OCC(C)C)C1c1ccccc1[N+](=O)[O-] (centres unmarked) [Nisoldipine] | 25.6905 | -7.104 |  |  | 
CC(=O)Oc1ccccc1C(=O)Nc1ncc([N+](=O)[O-])s1 [Nitazoxanide] | 189.082 | -2.727 |  |  | 
NC(=O)N/N=C/c1ccc([N+](=O)[O-])o1 [Nitrofural] |  | 0.068 | 535.985 |  | 
C#C[C@]1(O)CC[C@H]2[C@@H]3CCC4=CC(=O)CC[C@@H]4[C@H]3CC[C@@]21C [Norethindrone] | 274.683 | -0.48 |  |  | 

Structure (SMILES) | Ranking score [1] | B-score functional assay | Ranking score [2] | B-score functional assay (B-score) | Ranking score (ranking score beside the functional and binding assay B-scores of the screen)
OCCN1CCN(CCCN2c3ccccc3C=Cc3ccccc32)CC1 [Opipramol dihydrochloride] |  | -0.641 | 627.796 |  | 
Cc1ncc([N+](=O)[O-])n1CC(O)CCl (centres unmarked) [Ornidazole] | 260.803 | -1.861 |  |  | 
CCN(CC)CCc1nc(-c2ccccc2)no1.O=C(O)CC(O)(CC(=O)O)C(=O)O [Oxalamine citrate salt] |  | 0.505 | 587.786 |  | 
CN1CCCN=C1/C=C/c1cccc(O)c1.O=C(O)c1cc2ccccc2c(Cc2c(O)c(C(=O)O)cc3ccccc23)c1O [Oxantel pamoate] | 130.111 | -5.305 |  |  | 
CN(C(=O)CN(CCO)CC(=O)N(C)C(C)(C)Cc1ccccc1)C(C)(C)Cc1ccccc1 [Oxethazaine] |  | 0.282 | 642.638 |  | 
CCCOc1ccc2nc(NC(=O)OC)[nH]c2c1 [Oxibendazol] | 199.274 | -0.538 |  |  | 
C[C@]12C/C(=C/O)C(=O)C[C@@H]1CC[C@@H]1[C@@H]2CC[C@@]2(C)[C@H]1CC[C@]2(C)O [Oxymetholone] |  | -1.45 | 467.145 |  | 
C=C1C(=O)O[C@H]2[C@H]1CC/C(C)=C/CC[C@@]1(C)O[C@@H]21 [Parthenolide] |  | 2.985 | 607.546 |  | 
Nc1nc2[nH]cc(CCc3ccc(C(=O)N[C@@H](CCC(=O)O)C(=O)O)cc3)c2c(=O)[nH]1 [Pemetrexed disodium] | 234.359 | -1.364 |  |  | 
Cc1cccn2c(=O)c(-c3nnn[nH]3)cnc12 [Pemirolast potassium] |  | 0.868 | 607.829 |  | 
Nc1nc2c(ncn2CCC(CO)CO)c(=O)[nH]1 [Penciclovir] |  | -0.886 | 573.819 |  | 
N=C(N)c1ccc(OCCCCCOc2ccc(C(=N)N)cc2)cc1 [Pentamidine isethionate] |  | -0.233 | 489.028 |  | 
CC(=O)CCCCn1c(=O)c2c(ncn2C)n(C)c1=O [Pentoxifylline] |  | -0.027 | 582.174 |  | 
OCCN1CCN(CCCN2c3ccccc3Sc3ccc(Cl)cc32)CC1 [Perphenazine] | 88.5268 | -0.257 |  |  | 
Nc1ccc(/N=N/c2ccccc2)c(N)n1 [Phenazopyridine hydrochloride] | 182.587 | -0.376 |  |  | 
[H]/N=C(/N)N/C(=N/[H])NCCc1ccccc1 [Phenformin hydrochloride] | 172.511 | 0.533 |  |  | 
O=C1c2ccccc2C(=O)C1c1ccccc1 [Phenindione] |  | 1.774 | 569.166 |  | 
c1ccc2c(c1)Nc1ccccc1S2 [Phenothiazine] |  | -0.168 | 553.972 |  | 
CC(COc1ccccc1)N(CCCl)Cc1ccccc1 (centres unmarked) [Phenoxybenzamine hydrochloride] | 229.8 | -0.06 |  |  | 
NC(=O)OCCCc1ccccc1 [Phenprobamate] |  | 0.708 | 613.275 |  | 
CN1CCC(=C2c3ccccc3Sc3ccccc32)CC1 [Pimethixene maleate] |  | -0.824 | 556.525 |  | 
O=c1[nH]c2ccccc2n1C1CCN(CCCC(c2ccc(F)cc2)c2ccc(F)cc2)CC1 [Pimozide] | 234.734 | -2.417 |  |  | 
CC(=O)c1ccc2c(c1)N(CCCN1CCC(CCO)CC1)c1ccccc1S2 [Piperacetazine] |  | -0.935 | 531.5 |  | 
CCN1CCN(C(=O)N[C@@H](C(=O)N[C@@H]2C(=O)N3[C@@H]2SC(C)(C)[C@@H]3C(=O)O)c2ccccc2)C(=O)C1=O [Piperacillin sodium salt] |  | -0.194 | 549.729 |  | 
NS(=O)(=O)c1cc(C(=O)O)cc(N2CCCC2)c1Oc1ccccc1 [Piretanide] |  | -0.384 | 548.109 |  | 
CS(=O)(=O)O.Cc1ccc2c(c1)c1c3n2CCNC3CCC1 (centres unmarked) [Pirlindole mesylate] |  | 0.129 | 496.839 |  | 
CC(C)(C)C(=O)OCOC(=O)[C@@H]1N2C(=O)[C@@H](NC(=O)[C@H](N)c3ccccc3)[C@H]2SC1(C)C [Pivampicillin] | 199.66 | 2.096 |  |  | 
